In patent publication US20080280920A1, “Plasminogen Activator Inhibitor-1 Inhibitors” (priority 2005, published 2008):

Tests used:
[1] = biological target: T1, PAI-1 interaction with vitronectin (Homo sapiens, UniProt P05121); assay: PAI-1 vitronectin interaction ELISA; type: binding; settings: 15 nM PAI-1, vitronectin coated plates
T1 construct: purchased Molecular Innovations
Protocol: Principle: This ELISA assay is based on the interaction of wildtype human PAI-1 (aa 110-145) with the N-terminal somatomedin B-like (SMB) domain (aa 1-40) on vitronectin. PAI-1 was allowed to bind to vitronectin coated plates. The bound PAI-1 was detected with a HRP-conjugated polyclonal goat anti-human PAI-1 antibody using a standard ELISA method. In order to screen these compounds for their ability to disrupt PAI-1's interaction with vitronectin, PAI-1 was pre-incubated with various concentrations of the lead compounds before being allowed to bind to vitronectin.
Method: Human monomeric vitronectin (Vn; Molecular Innovations) was diluted to a concentration of 2.5 μg/ml in a buffer containing 100 mM Na2CO3, pH 9.6. […]
In a separate 96-well microtiter plate 20 μL per well of wildtype human PAI-1 (15 nM final concentration) was added with or without various concentrations of lead compounds (1 μM to 1000 μM final concentration) and incubated at room temperature for 15 minutes on a rotating shaker. […] Optical density was measured at 450 nm on a SoftMax PrO™ plate reader.
Where vitronectin inhibition was evident, IC50 values for a test compound were calculated by fitting a non-linear sigmoidal regression curve to log micromolar concentration versus optical density data.

[2] = biological target: T2, wildtype human PAI-1 (Homo sapiens, UniProt P05121); assay: PAI-1/uPA assay (residual uPA activity, fluorescent substrate SpectroFluor); type: biochemical; settings: for Percent PAI-1 inhibition: at the concentration given, percent of activity of untreated PAI-1; for Conc. of compound required for PAI-1 inhibition: concentration giving the percent inhibition, 6 nM PAI-1, 8 nM uPA
T2 construct: purchased Molecular Innovations Lot# HWT-804
Protocol: Principle: The assay is based on using a fluorescent substrate (SpectroFluor) to measure residual uPA following inhibition of uPA by PAI-1. PAI-1 used in the assay is pre-treated in the presence of increasing concentrations of the lead compounds to screen for any inhibitory effects on PAI-1. Method: This assay was performed in 96 well microtiter plates. The concentrations of uPA (8 nM) and PAI-1 (6 nM) used in this assay were carefully optimized when using the fluorescent substrate, SpectroFluor™. Stock solutions (10 mM) of all lead compounds were prepared fresh in DMSO. […] 20 μl of 6 nM wildtype human PAI-1 (Molecular Innovations, Lot# HWT-804) was incubated for 15-20 minutes at room temperature in 96 well microtiter plates either with buffer, (50 mM HEPES, 150 mM NaCl, 0.05% Tween-20, 1% BSA, pH 6.6) or various concentrations (10 nM to 100 μM final concentration) of lead compounds in a total volume of 80 μl. A 20 μl aliquot of 8 nM uPA (HMW) solution in 0.05M Tris Buffered™ saline (TBS), pH 8.4 was added to each well and the mixture incubated for an additional 5 minutes at RT. The proteolytic reaction was initiated by addition of 50 μl of 0.1 mM SpectroFluor (Spectrozyme UK Fluorogenic substrate) to each well. The kinetics of the free chromophore, 7-amino-4-methylcoumarin (AMC) released in the course of peptide cleavage by the protease, uPA, was monitored for 30 minutes at 37° C. on a spectrofluorometric microplate reader with an excitation wavelength of 360 nm and emission wavelength of 440 nm. Kinetic data regarding the rate of substrate cleavage by uPA was acquired with Softmax PrO™ software. The difference between the residual uPA activity in the presence or absence of untreated PAI-1, at the molar ratio used, was considered as the “total” PAI-1 activity (100%). The inhibition of uPA by PAI-1 treated with lead compounds was expressed as a percentage of the initial activity of untreated PAI-1. Controls were performed during each experiment to ensure the nearly complete inhibition of uPA by untreated PAI-1 and also to ensure the absence of any direct effect of the lead compounds on uPA alone or on SpectroFluor.

T2 sequence (P05121 24-402): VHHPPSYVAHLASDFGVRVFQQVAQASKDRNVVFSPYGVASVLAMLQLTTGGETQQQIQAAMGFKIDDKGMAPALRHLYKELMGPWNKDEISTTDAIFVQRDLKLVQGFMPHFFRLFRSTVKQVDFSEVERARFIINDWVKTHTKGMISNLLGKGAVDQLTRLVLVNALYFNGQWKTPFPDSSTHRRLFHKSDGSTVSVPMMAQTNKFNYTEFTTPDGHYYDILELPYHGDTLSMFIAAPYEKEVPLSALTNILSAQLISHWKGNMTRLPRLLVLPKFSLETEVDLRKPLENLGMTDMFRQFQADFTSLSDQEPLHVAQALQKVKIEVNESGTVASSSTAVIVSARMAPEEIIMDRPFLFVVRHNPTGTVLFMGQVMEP
T1 sequence (P05121 24-402): as above

IC50 [1] | Percent PAI-1 inhibition [2] | Conc. of compound required for PAI-1 inhibition [2] | SMILES
910 µM | 23 | 10 µM | CCOC(=O)[C@H](CCCNC(=N)NS(=O)(=O)c1c(C)cc(OC)c(C)c1C)NC(=O)N[C@@H](Cc1csc2ccccc12)C(=O)OCC [Compound Q012059, (2S)-2-[({[(1S)-1-carboxy-2-(thianaphthen-3-yl)ethyl]amino}carbonyl)amino]-5-({imino[(4-methoxy-2,3,6-trimethylphenylsulfonyl)amino]methyl}amino)pentanoic acid diethyl ester]
340 µM | 57 | 5 µM | COc1cc(CNCCCn2ccnc2)cc(CN2CCN(c3ncccn3)CC2)c1O [Compound Q012110, 2-Methoxy-4-({3-[(1H-imidazol-1-yl)propyl]amino}methyl)-6-[(4-pyrimidin-2-ylpiperazin-1-yl)methyl]phenol]
